Results: patent US20240182445A1 (ONO PHARMACEUTICAL CO., LTD., priority 2019, published 2024)

Experiments:
Type in all cases: cell-based
human TREK-1 [1] = biological target: T1, human TREK-1 (Homo sapiens, UniProt O95069); experiment: TREK-1 Thallium flux assay, Method 2; conditions: measured by Method 2 of TREK1 Thalium flux assay (footnote *12); read-out: Tl+ Assay IC50
T1 construct: expressed in transfected cells
T1 sequence (O95069 1-426): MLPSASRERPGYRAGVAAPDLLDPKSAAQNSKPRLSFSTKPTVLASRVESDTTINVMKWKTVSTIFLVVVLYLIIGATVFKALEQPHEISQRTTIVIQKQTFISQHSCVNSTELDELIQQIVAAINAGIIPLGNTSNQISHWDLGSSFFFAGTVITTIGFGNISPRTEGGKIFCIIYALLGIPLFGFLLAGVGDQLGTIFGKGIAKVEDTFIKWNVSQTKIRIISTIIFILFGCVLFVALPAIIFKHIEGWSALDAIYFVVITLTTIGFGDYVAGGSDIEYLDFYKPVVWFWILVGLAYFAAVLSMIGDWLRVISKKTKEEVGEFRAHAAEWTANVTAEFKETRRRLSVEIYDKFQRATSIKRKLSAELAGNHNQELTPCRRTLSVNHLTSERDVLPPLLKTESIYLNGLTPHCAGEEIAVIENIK
Protocol: CHO-K1 cells stably expressing human TREK-1 were plated in 384-well plates on the day of assay, loaded with Thallos dye. Test compounds or control compound (tert-butyl (3-((4-(benzyloxy)-2-methylphenyl)carbamoyl)-4-chlorophenyl)carbamate) or 0.3% DMSO (vehicle control) were added directly to the cell plates and incubated for 10 min, and then treated with thallium stimulus buffer to initiate thallium flux. To measure the efficacy and potency of test compounds, the change in fluorescence intensity (ΔRatio) and % inhibition were calculated using the following equations:
ΔRatio=(fluorescence intensity at 25 seconds after thallium addition)/(average of fluorescent intensity before thallium addition)

human TREK-1 [2] = biological target: T1, human TREK-1; experiment: TREK-1 Thallium (Tl+) flux assay, Method 1; conditions: TREK-1 Thallium (Tl+) flux assay
In short: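 Readout: Thallos fluorescence ratio, taken 25 s post-thallium relative to the pre-thallium baseline average, then converted to % inhibition. Cells were CHO-K1 stably expressing human TREK-1, dye-loaded and exposed to test compound (vehicle 0.3% DMSO) for 10 min prior to thallium stimulation.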

human TREK-1 [3] = biological target: T1, human TREK-1; experiment: TREK-1 Manual Patch Clamp (hMPC) assay; conditions: CHO-K1 cells stably expressing human TREK-1; whole-cell current at 0 mV
Protocol: The term “patch clamp technique” herein refers to the “gold standard” technique for evaluating TREK channel pharmacology. The detail method is described below.
CHO-K1 cells stably expressing human TREK-1 or HEK293 cells stably expressing human TREK-2 are plated on glass coverslips, and voltage clamped in the whole-cell configuration of the patch clamp technique. Cells were voltage clamped at a holding potential of −80 mV and the stepped to 0 mV for 500 msec. The voltage was subsequently ramped from −120 mV to +80 mV over a 500 msec duration. This step-ramp protocol was repeated every 10 sec. The bathing solution contained the following: 135 mM NaCl, 5 mM KCl, 2 mM CaCl2, 1 mM MgCl2, 5 mM D-Glucose, 10 mM HEPES, 10 mM sucrose (adjusted to pH 7.4 with NaOH, 300 mosmol/kg H2O). The pipette solution contained the following: 135 mM KCl, 2 mM MgCl2, 1 mM EGTA, 10 mM HEPES, 2 mM Na2ATP (adjusted to pH 7.35 with KOH, 285 mosmol/kg H2O). Test compounds were dissolved into the bathing solution. Experiments on TREK-2 were terminated with the addition of the control compound (tert-butyl (3-((4-(benzyloxy)-2-methylphenyl)carbamoyl)-4-chlorophenyl)carbamate) so that maximal inhibition could be determined. The effects of test compound on the currents were calculated at 0 mV using the following equations:
For CHO cells expressing TREK-1 channel: % inhibition=(1-post current/pre current)×100
The compounds shown in Table 2 were prepared in an analogous manner with the appropriate starting materials, and evaluated in our TREK-1 Manual Patch Clamp (hMPC) assay.

[4] = values without footnote *12 are Method 1

Structure (SMILES)	IC50 (human TREK-1 [1])	IC50 (human TREK-1 [2]; [4])	IC50 (human TREK-1 [3])	IC50 (human TREK-1 [2]; no *^12 (Method 2) mark on these rows)
Cc1cc(C#Cc2ccccc2)cnc1NC(=O)c1c(Cl)cnn1[C@H]1CCn2nccc2C1 (single isomer, unassigned) [Compound 456, 4-chloro-N-[3-methyl-5-(phenylethynyl)pyridin-2-yl]-1-[(5S)-4,5,6,7-tetrahydropyrazolo[1,5-a]pyridin-5-yl]-1H-pyrazole-5-carboxamide or 4-chloro-N-[3-methyl-5-(phenylethynyl)pyridin-2-yl]-1-[(5R)-4,5,6,7-tetrahydropyrazolo[1,5-a]pyridin-5-yl]-1H-pyrazole-5-carboxamide]	120 nM			
Cc1cc(C#Cc2ccccc2)cnc1NC(=O)c1c(Cl)cnn1[C@H]1CCn2nccc2C1 (single isomer, unassigned) [Compound 457, 4-chloro-N-[3-methyl-5-(phenylethynyl)pyridin-2-yl]-1-[(5S)-4,5,6,7-tetrahydropyrazolo[1,5-a]pyridin-5-yl]-1H-pyrazole-5-carboxamide or 4-chloro-N-[3-methyl-5-(phenylethynyl)pyridin-2-yl]-1-[(5R)-4,5,6,7-tetrahydropyrazolo[1,5-a]pyridin-5-yl]-1H-pyrazole-5-carboxamide]	37 nM			
CC(=O)N[C@H]1CC[C@@H](n2ncc(Cl)c2C(=O)Nc2ncc(C#Cc3ccccc3)cc2F)CC1 [Compound 13, 1-(cis-4-acetamidocyclohexyl)-4-chloro-N-(3-fluoro-5-(phenylethynyl)pyridin-2-yl)-1H-pyrazole-5-carboxamide]		120 nM	60 nM	
CC(=O)N[C@H]1CC[C@@H](n2ncc(Cl)c2C(=O)Nc2ncc(C#Cc3ccc(F)cc3)cc2C)CC1 [Compound 14, 1-(cis-4-acetamidocyclohexyl)-4-chloro-N-(5-((4-fluorophenyl)ethynyl)-3-methylpyridin-2-yl)-1H-pyrazole-5-carboxamide]		260 nM	2 nM	
CC(=O)N1CCC(F)(Cn2ncc(Cl)c2C(=O)Nc2ncc(C#Cc3ccccc3)cc2C)CC1 [Compound 15, 1-((1-acetyl-4-fluoropiperidin-4-yl)methyl)-4-chloro-N-(3-methyl-5-(phenylethynyl)pyridin-2-yl)-1H-pyrazole-5-carboxamide]		400 nM	290 nM	
CC(=O)N1CCC([C@H](C)n2ncc(Cl)c2C(=O)Nc2ncc(C#Cc3ccccc3)cc2C)CC1 [Compound 16, (S)-1-(1-(1-acetylpiperidin-4-yl)ethyl)-4-chloro-N-(3-methyl-5-(phenylethynyl)pyridin-2-yl)-1H-pyrazole-5-carboxamide]		100 nM	160 nM	
CC(=O)N1CC(F)(Cn2ncc(Cl)c2C(=O)Nc2ncc(C#Cc3ccccc3)cc2F)C1 [Compound 140, 1-((1-acetyl-3-fluoroazetidin-3-yl)methyl)-4-chloro-N-(3-fluoro-5-(phenylethynyl)pyridin-2-yl)-1H-pyrazole-5-carboxamide]		220 nM	130 nM	
CC(=O)N1CC(F)(Cn2ncc(Cl)c2C(=O)Nc2ncc(C#Cc3ccccc3)cc2C)C1 [Compound 215, 1-((1-acetyl-3-fluoroazetidin-3-yl)methyl)-4-chloro-N-(3-methyl-5-(phenylethynyl)pyridin-2-yl)-1H-pyrazole-5-carboxamide]			130 nM	330 nM
Cc1cc(C#Cc2ccccc2)cnc1NC(=O)c1c(Cl)cnn1[C@H]1CCN(C(=O)C2CC2)C1 [Compound 454, 4-chloro-1-[(3S)-1-(cyclopropanecarbonyl)pyrrolidin-3-yl]-N-[3-methyl-5-(phenylethynyl)pyridin-2-yl]-1H-pyrazole-5-carboxamide]	130 nM		100 nM	
Cc1cc(C#Cc2ccccc2)cnc1NC(=O)c1c(Cl)cnn1[C@@H]1CCN(C(=O)C2CC2)C1 [Compound 455, 4-chloro-1-[(3R)-1-(cyclopropanecarbonyl)pyrrolidin-3-yl]-N-[3-methyl-5-(phenylethynyl)pyridin-2-yl]-1H-pyrazole-5-carboxamide]	140 nM			
